Data from publication PMC4046888 (Cancer cell, 2011).
Where two headings read alike, the source gives them in different places.

How the values were obtained:
RS4;11 cells (MLL-AF4) = experiment: Cell proliferation, viable cell count; assay type: cell-based; conditions: Homo sapiens, RS4-11, 336 h, read-out: IC50 inhibition of cell proliferation
SEM cells (MLL-AF4) = experiment: Cell proliferation, viable cell count; assay type: cell-based; conditions: Homo sapiens, 336 h, read-out: IC50 inhibition of cell proliferation
MV4-11 cells (MLL-AF4) = experiment: Cell proliferation, viable cell count; assay type: cell-based, human
MOLM-13 cells (MLL-AF9) = experiment: Cell proliferation, viable cell count; assay type: cell-based, human
KOPN-8 cells (MLL-ENL) = experiment: Cell proliferation, viable cell count; assay type: cell-based; conditions: Homo sapiens, KOPN-8, 336 h, read-out: IC50 inhibition of cell proliferation
[1] = test system: REH cells (nonrearranged); experiment: Cell proliferation, viable cell count; assay type: cell-based; conditions: Homo sapiens, 336 h, read-out: IC50 inhibition of cell proliferation
[2] = test system: Kasumi-1 cells (nonrearranged); experiment: Cell proliferation, viable cell count; assay type: cell-based; conditions: Homo sapiens, Kasumi 1, 336 h, read-out: IC50 inhibition of cell proliferation
[3] = test system: 697 cells (nonrearranged); experiment: Cell proliferation, viable cell count; assay type: cell-based; conditions: Homo sapiens, 336 h, read-out: IC50 inhibition of cell proliferation
[4] = test system: HL-60 cells (nonrearranged); experiment: Cell proliferation, viable cell count; assay type: cell-based; conditions: Homo sapiens, HL-60, 336 h, read-out: IC50 inhibition of cell proliferation
[5] = test system: Jurkat cells (nonrearranged); experiment: Cell proliferation, viable cell count; assay type: cell-based, human
[6] = test system: U937 cells (nonrearranged); experiment: Cell proliferation, viable cell count; assay type: cell-based; conditions: Homo sapiens, U-937, 336 h, read-out: IC50 inhibition of cell proliferation
[7] = test system: H3K79me2 levels in MV4-11 cells; experiment: Immunoblot of extracted histones for H3K79me2; assay type: cell-based, human
[8] = test system: H3K79me2 levels in MOLM-13 cells; experiment: Immunoblot of extracted histones for H3K79me2; assay type: cell-based, human; conditions: 4 days, increasing concentrations
[9] = test system: H3K79me2 levels in Jurkat cells; experiment: Immunoblot of extracted histones for H3K79me2; assay type: cell-based, human; conditions: 4 days, increasing concentrations
[10] = test system: histone methyl marks in MV4-11 cells; experiment: Immunoblot with panel of methyl-lysine and methyl-arginine specific antibodies; assay type: cell-based, human; conditions: 10 μM
[11] = test system: HOXA9, MEIS1 and TBP mRNA in MV4-11 and MOLM-13 cells; experiment: Quantitative real-time PCR, time course at 3 μM; assay type: cell-based, human
[12] = test system: primary murine hematopoietic progenitors transformed by MLL-AF9; experiment: Proliferation of transformed hematopoietic progenitors; assay type: cell-based; conditions: 10 days treatment, MTT at day 12
[13] = test system: hematopoietic progenitors transformed by coexpression of HoxA9 and Meis1a; experiment: as above; assay type: cell-based, murine; conditions: concentrations of up to 30 μM
[14] = test system: H3K79me2 in MLL-AF9 transformed hematopoietic progenitors; experiment: Immunoblot for H3K79me2 in transformed progenitors; assay type: cell-based, murine; conditions: 10 days
[15] = test system: H3K79me2 in Hoxa9-Meis1a transformed hematopoietic progenitors; experiment: Immunoblot for H3K79me2 in transformed progenitors; assay type: cell-based, murine; conditions: 10 days
MV4-11 cells = experiment: Flow cytometry for DNA content and Annexin V; assay type: cell-based, human; conditions: 3 μM
[16] = test system: CD14 expression in MOLM-13 cells; experiment: Flow cytometry for cell surface CD14; assay type: cell-based, human; conditions: 3 μM, 12 days
[17] = Plasma concentration by LC-MS/MS, mini-osmotic pump infusion; assay type: in vivo, mouse; conditions: for average steady-state plasma concentration: pilot PK
[18] = test system: MV4-11 cells injected into tail vein of NSG mice; experiment: Disseminated MV4-11 leukemia model, survival; assay type: in vivo, mouse
normal C57BL/6 mice = experiment: Hematologic analysis and tolerability in normal mice; assay type: in vivo, mouse; conditions: pump 150 mg/ml, 14 days
Solubility = assay type: physicochemical
[19] = test system: HOXA9 and MEIS1 transcript levels in MV4-11 cells; experiment: Quantitative real-time PCR, concentration response; conditions: Homo sapiens, MV4-11, 144 h
[20] = test system: HOXA9 and MEIS1 transcript levels in MOLM-13 cells; experiment: Quantitative real-time PCR, concentration response; conditions: Homo sapiens, MOLM-13, 144 h
CARM1 = CARM1 (Homo sapiens, UniProt Q86X55); experiment: Histone methyltransferase panel IC50, balanced conditions
Chain of CARM1 (Q86X55 whole entry): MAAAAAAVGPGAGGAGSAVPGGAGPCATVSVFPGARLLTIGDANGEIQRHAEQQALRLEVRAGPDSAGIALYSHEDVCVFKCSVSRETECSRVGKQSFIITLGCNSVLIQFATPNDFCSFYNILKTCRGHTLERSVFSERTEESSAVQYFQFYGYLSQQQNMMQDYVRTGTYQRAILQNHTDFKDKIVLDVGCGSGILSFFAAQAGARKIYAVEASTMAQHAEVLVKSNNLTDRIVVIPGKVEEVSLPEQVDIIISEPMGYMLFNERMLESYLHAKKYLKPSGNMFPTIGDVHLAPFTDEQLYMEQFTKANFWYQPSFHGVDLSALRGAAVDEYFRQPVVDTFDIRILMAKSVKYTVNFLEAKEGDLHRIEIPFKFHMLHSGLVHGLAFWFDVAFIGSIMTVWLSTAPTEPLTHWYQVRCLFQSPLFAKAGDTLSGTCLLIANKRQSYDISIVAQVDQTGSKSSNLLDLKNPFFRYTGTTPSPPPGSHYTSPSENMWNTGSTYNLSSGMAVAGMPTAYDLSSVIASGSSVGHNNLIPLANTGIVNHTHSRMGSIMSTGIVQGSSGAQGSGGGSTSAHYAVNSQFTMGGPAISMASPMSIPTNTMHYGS

EHMT2 = EHMT2 (Homo sapiens, UniProt Q96KQ7); experiment: as above
Chain of EHMT2 (Q96KQ7 whole entry): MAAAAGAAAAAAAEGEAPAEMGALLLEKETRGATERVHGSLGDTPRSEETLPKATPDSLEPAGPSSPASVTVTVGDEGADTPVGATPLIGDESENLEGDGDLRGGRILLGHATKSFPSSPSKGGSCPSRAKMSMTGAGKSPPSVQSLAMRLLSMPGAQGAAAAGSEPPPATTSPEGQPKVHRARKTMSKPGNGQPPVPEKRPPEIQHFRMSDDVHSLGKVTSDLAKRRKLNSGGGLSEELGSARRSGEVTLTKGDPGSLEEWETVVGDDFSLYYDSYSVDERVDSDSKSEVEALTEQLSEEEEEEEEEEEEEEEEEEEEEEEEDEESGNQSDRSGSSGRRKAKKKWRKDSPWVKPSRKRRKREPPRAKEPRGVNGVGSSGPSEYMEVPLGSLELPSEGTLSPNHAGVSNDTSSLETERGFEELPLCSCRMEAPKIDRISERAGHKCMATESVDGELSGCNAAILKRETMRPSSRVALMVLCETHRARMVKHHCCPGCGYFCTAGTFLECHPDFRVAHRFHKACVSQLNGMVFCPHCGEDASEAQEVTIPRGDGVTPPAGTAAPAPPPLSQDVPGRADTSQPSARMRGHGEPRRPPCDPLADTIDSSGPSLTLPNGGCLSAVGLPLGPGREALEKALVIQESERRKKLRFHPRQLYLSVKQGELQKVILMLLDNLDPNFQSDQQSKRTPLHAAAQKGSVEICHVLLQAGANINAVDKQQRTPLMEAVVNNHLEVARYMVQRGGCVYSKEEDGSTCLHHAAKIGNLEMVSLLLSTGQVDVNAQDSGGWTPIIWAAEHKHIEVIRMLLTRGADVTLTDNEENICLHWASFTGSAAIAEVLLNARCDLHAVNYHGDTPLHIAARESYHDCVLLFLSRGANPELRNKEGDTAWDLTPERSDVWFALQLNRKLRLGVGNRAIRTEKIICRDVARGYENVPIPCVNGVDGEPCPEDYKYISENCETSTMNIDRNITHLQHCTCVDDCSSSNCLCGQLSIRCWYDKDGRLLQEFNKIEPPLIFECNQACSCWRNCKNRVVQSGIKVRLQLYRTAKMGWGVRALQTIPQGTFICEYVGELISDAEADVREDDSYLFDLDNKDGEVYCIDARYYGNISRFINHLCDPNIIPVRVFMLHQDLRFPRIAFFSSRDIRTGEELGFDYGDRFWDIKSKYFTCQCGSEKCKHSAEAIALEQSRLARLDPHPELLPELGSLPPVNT

[21] = molecular target: EZH1 (in the context of the PRC2 multiprotein complex) (Homo sapiens, UniProt Q92800); experiment: as above
[22] = molecular target: EZH2 (in the context of the PRC2 multiprotein complex) (Homo sapiens, UniProt Q15910); experiment: as above
PRMT1 = PRMT1 (Homo sapiens, UniProt Q99873); experiment: as above
Chain of PRMT1 (Q99873 whole entry): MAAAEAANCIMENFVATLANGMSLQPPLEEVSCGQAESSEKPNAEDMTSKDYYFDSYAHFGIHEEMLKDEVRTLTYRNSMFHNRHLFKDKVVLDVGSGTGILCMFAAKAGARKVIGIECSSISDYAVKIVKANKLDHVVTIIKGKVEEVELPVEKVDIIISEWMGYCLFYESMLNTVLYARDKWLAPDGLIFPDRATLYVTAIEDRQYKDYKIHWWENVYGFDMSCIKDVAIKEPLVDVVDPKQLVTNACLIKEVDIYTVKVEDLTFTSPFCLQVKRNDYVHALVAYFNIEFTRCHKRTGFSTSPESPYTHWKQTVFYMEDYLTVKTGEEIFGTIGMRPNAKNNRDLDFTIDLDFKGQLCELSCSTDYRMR

PRMT5 = PRMT5 (Homo sapiens, UniProt O14744); experiment: as above
Chain of PRMT5 (O14744 whole entry): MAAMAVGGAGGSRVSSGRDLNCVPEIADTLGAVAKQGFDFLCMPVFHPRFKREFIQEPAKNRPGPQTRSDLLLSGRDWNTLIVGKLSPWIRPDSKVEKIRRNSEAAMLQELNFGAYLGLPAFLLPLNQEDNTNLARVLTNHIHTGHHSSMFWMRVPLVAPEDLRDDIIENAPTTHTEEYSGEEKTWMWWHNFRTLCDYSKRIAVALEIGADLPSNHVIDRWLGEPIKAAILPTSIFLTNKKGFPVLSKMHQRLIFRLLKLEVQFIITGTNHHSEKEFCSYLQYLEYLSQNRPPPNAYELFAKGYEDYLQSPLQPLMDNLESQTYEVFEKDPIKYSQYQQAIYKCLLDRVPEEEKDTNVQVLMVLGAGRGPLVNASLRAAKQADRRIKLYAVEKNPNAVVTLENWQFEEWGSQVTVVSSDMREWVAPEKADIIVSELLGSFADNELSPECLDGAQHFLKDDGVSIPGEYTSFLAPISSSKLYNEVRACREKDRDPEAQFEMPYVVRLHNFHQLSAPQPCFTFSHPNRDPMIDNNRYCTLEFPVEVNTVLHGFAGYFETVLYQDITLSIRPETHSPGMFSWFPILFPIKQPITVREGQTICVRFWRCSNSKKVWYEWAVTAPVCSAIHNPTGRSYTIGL
Chain of PRMT5 (Q9BQA1 whole entry partner): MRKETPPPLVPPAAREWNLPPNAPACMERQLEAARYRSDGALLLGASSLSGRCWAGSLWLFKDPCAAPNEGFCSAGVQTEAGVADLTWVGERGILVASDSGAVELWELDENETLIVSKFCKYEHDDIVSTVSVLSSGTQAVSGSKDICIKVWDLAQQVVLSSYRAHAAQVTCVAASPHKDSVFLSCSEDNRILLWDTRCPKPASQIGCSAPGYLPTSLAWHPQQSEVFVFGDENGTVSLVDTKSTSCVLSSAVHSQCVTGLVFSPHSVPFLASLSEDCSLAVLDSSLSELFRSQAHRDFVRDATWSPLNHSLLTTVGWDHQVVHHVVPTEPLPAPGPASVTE

PRMT8 = PRMT8 (Homo sapiens, UniProt Q9NR22); experiment: as above
Chain of PRMT8 (Q9NR22 whole entry): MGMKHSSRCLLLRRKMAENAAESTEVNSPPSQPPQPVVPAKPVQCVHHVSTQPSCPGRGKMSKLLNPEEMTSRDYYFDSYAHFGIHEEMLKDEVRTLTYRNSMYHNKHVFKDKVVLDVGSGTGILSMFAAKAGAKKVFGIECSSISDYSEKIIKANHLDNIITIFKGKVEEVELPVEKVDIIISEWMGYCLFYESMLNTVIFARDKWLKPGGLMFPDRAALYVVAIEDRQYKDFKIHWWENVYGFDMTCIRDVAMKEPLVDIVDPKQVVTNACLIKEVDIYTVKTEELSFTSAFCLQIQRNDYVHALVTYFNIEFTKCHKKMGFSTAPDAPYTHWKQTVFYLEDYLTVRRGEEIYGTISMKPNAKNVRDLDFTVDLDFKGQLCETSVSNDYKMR

SETD7 = SETD7 (Homo sapiens, UniProt Q8WTS6); experiment: as above
WHSC1 = WHSC1 (Homo sapiens, UniProt O96028); experiment: as above
Chain of WHSC1 (O96028 whole entry): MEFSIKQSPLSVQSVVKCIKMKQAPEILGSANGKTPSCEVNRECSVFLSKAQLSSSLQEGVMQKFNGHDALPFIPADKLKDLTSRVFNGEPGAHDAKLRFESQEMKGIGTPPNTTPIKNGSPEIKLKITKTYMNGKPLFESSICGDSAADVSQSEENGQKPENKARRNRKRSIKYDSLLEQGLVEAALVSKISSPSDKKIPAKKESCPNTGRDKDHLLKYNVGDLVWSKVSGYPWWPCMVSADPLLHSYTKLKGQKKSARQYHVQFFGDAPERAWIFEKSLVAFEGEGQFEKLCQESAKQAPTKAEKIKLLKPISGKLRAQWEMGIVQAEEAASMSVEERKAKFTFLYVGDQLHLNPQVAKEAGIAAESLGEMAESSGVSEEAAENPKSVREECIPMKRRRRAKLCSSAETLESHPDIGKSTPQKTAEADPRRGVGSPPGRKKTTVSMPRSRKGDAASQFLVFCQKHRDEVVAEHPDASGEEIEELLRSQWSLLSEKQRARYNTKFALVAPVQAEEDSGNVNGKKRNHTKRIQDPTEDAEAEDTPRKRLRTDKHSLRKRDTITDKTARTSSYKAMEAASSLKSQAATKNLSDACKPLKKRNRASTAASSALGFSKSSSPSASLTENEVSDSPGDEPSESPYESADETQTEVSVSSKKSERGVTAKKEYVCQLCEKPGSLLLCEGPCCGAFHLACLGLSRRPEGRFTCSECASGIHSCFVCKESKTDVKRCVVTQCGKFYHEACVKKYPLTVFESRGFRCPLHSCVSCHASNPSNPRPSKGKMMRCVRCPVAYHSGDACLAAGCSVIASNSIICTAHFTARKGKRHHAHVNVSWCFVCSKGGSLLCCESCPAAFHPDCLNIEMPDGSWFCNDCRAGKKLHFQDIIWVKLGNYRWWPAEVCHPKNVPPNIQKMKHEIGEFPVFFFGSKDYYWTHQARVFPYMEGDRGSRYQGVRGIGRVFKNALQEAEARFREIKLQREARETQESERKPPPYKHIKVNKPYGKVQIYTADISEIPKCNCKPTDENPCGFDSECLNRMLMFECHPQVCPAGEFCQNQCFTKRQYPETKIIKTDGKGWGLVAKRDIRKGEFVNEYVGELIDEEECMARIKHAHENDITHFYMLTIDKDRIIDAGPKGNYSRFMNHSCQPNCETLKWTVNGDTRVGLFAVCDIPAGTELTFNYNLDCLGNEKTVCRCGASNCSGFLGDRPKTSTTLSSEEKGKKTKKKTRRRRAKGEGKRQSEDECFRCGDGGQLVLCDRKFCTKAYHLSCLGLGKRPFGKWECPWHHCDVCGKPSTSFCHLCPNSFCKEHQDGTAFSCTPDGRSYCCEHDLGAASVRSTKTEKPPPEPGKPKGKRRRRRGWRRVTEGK

[23] = read-out: IC50 decrease of HOXA9 transcript
[24] = read-out: IC50 decrease of MEIS1 transcript

Compound: CC(C)N(CCCNC(=O)Nc1ccc(C(C)(C)C)cc1)C[C@H]1O[C@@H](n2ccc3c(N)ncnc32)[C@H](O)[C@@H]1O [EPZ004777]
- IC50 (RS4;11 cells (MLL-AF4)): 6.47 µM
- IC50 (SEM cells (MLL-AF4)): 1.72 µM
- number of viable cells (MV4-11 cells (MLL-AF4); 3 μM, extended treatment): dramatically reduced
- IC50 (MV4-11 cells (MLL-AF4); Homo sapiens, MV4-11, 336 h, read-out: IC50 inhibition of cell proliferation): 0.17 µM
- number of viable cells (MOLM-13 cells (MLL-AF9); 3 μM, extended treatment): dramatically reduced
- IC50 (MOLM-13 cells (MLL-AF9); Homo sapiens, 336 h, read-out: IC50 inhibition of cell proliferation): 0.72 µM
- IC50 (KOPN-8 cells (MLL-ENL)): 0.62 µM
- IC50 [1]: 13.9 µM
- IC50 [2]: 33 µM
- IC50 [3]: 36.6 µM
- IC50 [4]: > 50 µM
- growth of cells ([5]; 3 μM, extended treatment): unaffected
- IC50 ([5]; Homo sapiens, Jurkat, 336 h, read-out: IC50 inhibition of cell proliferation): > 50 µM
- IC50 [6]: > 50 µM
- time to full depletion of H3K79me2 ([7]; 3 μM): 4 to 5 days
- global H3K79me2 levels ([7]; 4 days, increasing concentrations): concentration-dependent reduction
- global H3K79me2 levels [8]: concentration-dependent reduction
- global H3K79me2 levels [9]: concentration-dependent reduction
- H3K79me1 levels [10]: reduced
- H4R3me2 (residue targeted by PRMT5) [10]: no changes
- methylation state of H3K9 and H3K4 (PRDM and SMYD family targets) [10]: did not change
- time to maximal reduction of HOXA9 and MEIS1 transcripts [11]: 6 to 8 days
- time to significant decrease of HOXA9 and MEIS1 transcripts [11]: ≤ 48 h
- transcript levels of housekeeping gene TBP ([11]; 8 days): unaffected
- concentration strongly inhibiting proliferation [12]: ≥ 3 µM
- survival of transformed progenitors [13]: unaffected
- H3K79 methylation [14]: inhibited H3K79 methylation
- H3K79 methylation [15]: inhibited H3K79 methylation
- G0/G1 phase cells (MV4-11 cells; 4 days): modest increase
- S-phase cells (MV4-11 cells; 4 days): decrease
- sub-G1 and Annexin-positive cells (MV4-11 cells; days 4 to 10): increase
- cell surface expression of CD14 [16]: induced
- pharmacokinetic properties ([17]; precluded conventional dosing): poor
- average circulating plasma level ([17]; pump 50 mg/ml, s.c. MV4-11 xenograft mice): 0.55 ± 0.12 µM
- average steady-state plasma concentration ([17]; pump 100 mg/ml): 0.64 ± 0.48 µM
- average steady-state plasma concentration ([17]; pump 150 mg/ml): 0.84 ± 0.45 µM
- pump implant site reaction ([18]; 100 and 150 mg/ml groups): Local irritation at the pump implant site
- body weight ([18]; NSG mice, 14 days): no significant weight loss
- tolerability ([18]; NSG mice, 14 days): well tolerated
- median survival ([18]; pumps 50, 100 or 150 mg/ml, 14 days exposure, log-rank test): dose-dependent and statistically significant increase
- bone marrow cellularity (normal C57BL/6 mice): preserved
- colony forming potential of bone marrow progenitors (normal C57BL/6 mice): did not find any significant differences
- granulocyte/monocyte progenitors (GMP) (normal C57BL/6 mice): not significantly affected
- overt toxicity (normal C57BL/6 mice): no overt toxicity
- tolerability (normal C57BL/6 mice): well tolerated
- populations highly enriched for hematopoietic stem cells (normal C57BL/6 mice; versus control mice): did not reveal any difference
- committed progenitors (Lin-Sca-1-c-Kit+) (normal C57BL/6 mice; most apparent in CMP and MEP): statistically significant decrease
- total white blood cell count (normal C57BL/6 mice; neutrophils, monocytes, lymphocytes increased): statistically significant increase
- solubility (Solubility): ≤ 50 µM
- solubility (Solubility; 15% ethanol, 50% PEG300, 35% water): 150 mg/mL
- IC50 [19, 23]: ~0.7 µM
- IC50 [19, 24]: ~0.7 µM
- IC50 [20, 23]: ~0.7 µM
- IC50 [20, 24]: ~0.7 µM
- IC50 (CARM1): > 50 µM
- IC50 (EHMT2): > 50 µM
- IC50 [21]: > 50 µM
- IC50 [22]: > 50 µM
- IC50 (PRMT1): > 50 µM
- IC50 (PRMT5; IC50, ± 95% confidence interval): 0.521 ± 0.137 µM
- IC50 (PRMT5; biochemical IC50, only HMT other than DOT1L below this bound): < 50 µM
- IC50 (PRMT8): > 50 µM
- IC50 (SETD7): > 50 µM
- IC50 (WHSC1): > 50 µM
